# Test results from ChEMBL document CHEMBL1275558 (Antimicrob Agents Chemother, 2008).
# Columns and labels:
# [1] = Cytotoxicity against human foreskin fibroblast cell infected with Toxoplasma gondii; type: cell-based; details: read-out: TD50 (the source's name)
# Toxoplasma gondii = experiment: Antimicrobial activity against Toxoplasma gondii; type: functional; details: read-out: ID50 (the source's name)
# [2] = Therapeutic index, ration of TD50 for human foreskin fibroblast cell infected with Toxoplasma gondii to ID 50 for Toxoplasma gondii; type: cell-based; details: read-out: TI
smiles,measurement,setting,value
O=C1C(c2c(O)[nH]c3cc(Cl)ccc23)=Nc2ccccc21,CC50,[1],> 500 µM
same,IC50,Toxoplasma gondii,> 500 µM
O=C1Nc2ccccc2/C1=C1/Nc2ccccc2C1=O [INDIRUBIN],CC50,[1],> 500 µM
same,IC50,Toxoplasma gondii,> 500 µM
O=C1Nc2ccc(S(=O)(=O)O)cc2/C1=C1/Nc2ccccc2/C1=N\O,CC50,[1],> 500 µM
same,IC50,Toxoplasma gondii,> 500 µM
CC(=O)O/N=C1/C(c2c(O)[nH]c3ccccc23)=Nc2ccccc21,CC50,[1],22 µM
same,IC50,Toxoplasma gondii,0.21 µM
same,selectivity ratio,[2],100
O=Nc1c(-c2c(O)[nH]c3cc(Cl)ccc23)[nH]c2ccccc12,CC50,[1],20 µM
same,IC50,Toxoplasma gondii,0.18 µM
same,selectivity ratio,[2],110
O=C1c2cc(F)ccc2-n2c1nc1ccccc1c2=O,CC50,[1],63 µM
same,IC50,Toxoplasma gondii,0.002 µM
same,selectivity ratio,[2],31500
O=C1Nc2cc(Cl)c(Br)cc2/C1=C1/Nc2ccccc2/C1=N\O,CC50,[1],> 500 µM
same,IC50,Toxoplasma gondii,2.4 µM
same,selectivity ratio,[2],> 210
O=C1C(c2c(O)[nH]c3ccc(Cl)cc23)=Nc2ccccc21,CC50,[1],> 500 µM
same,IC50,Toxoplasma gondii,60 µM
same,selectivity ratio,[2],> 8
O=Nc1c(-c2c(O)[nH]c3ccccc23)[nH]c2ccccc12 [INDIRUBIN-3-MONOXIME],CC50,[1],> 500 µM
same,IC50,Toxoplasma gondii,3.6 µM
same,selectivity ratio,[2],> 139
O=C1c2cc(Cl)ccc2-n2c1nc1ccccc1c2=O,CC50,[1],360 µM
same,IC50,Toxoplasma gondii,0.011 µM
same,selectivity ratio,[2],33000
O=C1Nc2cc(Cl)c(Br)cc2/C1=C1/Nc2ccccc2C1=O,CC50,[1],> 500 µM
same,IC50,Toxoplasma gondii,> 500 µM
O=C1C(c2c(O)[nH]c3ccc(I)cc23)=Nc2ccccc21,CC50,[1],240 µM
same,IC50,Toxoplasma gondii,22 µM
same,selectivity ratio,[2],11
O=C1c2cc(Br)ccc2-n2c1nc1ccccc1c2=O,CC50,[1],> 500 µM
same,IC50,Toxoplasma gondii,0.003 µM
same,selectivity ratio,[2],> 160000
O=C1C(c2c(O)[nH]c3ccc(S(=O)(=O)O)cc23)=Nc2ccccc21,CC50,[1],> 500 µM
same,IC50,Toxoplasma gondii,> 500 µM
O=C1C(c2c(O)[nH]c3ccc(Br)cc23)=Nc2ccccc21,CC50,[1],> 500 µM
same,IC50,Toxoplasma gondii,27 µM
same,selectivity ratio,[2],> 19
O=C1C(c2c(O)[nH]c3ccc(F)cc23)=Nc2ccccc21,CC50,[1],> 500 µM
same,IC50,Toxoplasma gondii,> 500 µM
O=C1Nc2cc(Br)ccc2/C1=C1/Nc2ccccc2/C1=N\O [6BIO],CC50,[1],16 µM
O=C1C(c2c(O)[nH]c3ccc([N+](=O)[O-])cc23)=Nc2ccccc21,CC50,[1],> 500 µM
same,IC50,Toxoplasma gondii,> 500 µM
O=C1Nc2ccccc2/C1=C1/Nc2ccccc2/C1=N\OCC(O)CO (stereo not given),CC50,[1],> 500 µM
same,IC50,Toxoplasma gondii,230 µM
same,selectivity ratio,[2],> 2
O=C1c2ccccc2-n2c1nc1ccccc1c2=O [TRYPTANTHRIN],CC50,[1],62 µM
same,IC50,Toxoplasma gondii,0.031 µM
same,selectivity ratio,[2],2000
CC(=O)O/N=C1/C(=C2/C(=O)Nc3cc(Br)ccc32)Nc2ccccc21 [6-BROMOINDIRUBIN-3'-ACETOXIME],CC50,[1],46 µM
same,IC50,Toxoplasma gondii,3.7 µM
same,selectivity ratio,[2],12
O=Nc1c(-c2c(O)[nH]c3ccc(I)cc23)[nH]c2ccccc12,CC50,[1],47 µM
same,IC50,Toxoplasma gondii,9.7 µM
same,selectivity ratio,[2],5
O=C1c2ccc(Br)cc2-n2c1nc1ccccc1c2=O,CC50,[1],> 500 µM
same,IC50,Toxoplasma gondii,3 µM
same,selectivity ratio,[2],> 160
O=C1Nc2ccc(Br)cc2/C1=C1/Nc2ccccc2/C1=N\O [INDIRUBIN 2],CC50,[1],17 µM
same,IC50,Toxoplasma gondii,1.8 µM
same,selectivity ratio,[2],9
Cc1ccc2c(c1)C(=O)c1nc3ccccc3c(=O)n1-2,CC50,[1],> 500 µM
same,IC50,Toxoplasma gondii,0.082 µM
same,selectivity ratio,[2],> 6100
O=Nc1c(-c2c(O)[nH]c3ccc([N+](=O)[O-])cc23)[nH]c2ccccc12,CC50,[1],27 µM
same,IC50,Toxoplasma gondii,1.1 µM
same,selectivity ratio,[2],25
CC(=O)N1C(=O)/C(=C2\Nc3ccccc3C2=O)c2ccccc21,CC50,[1],> 500 µM
same,IC50,Toxoplasma gondii,30 µM
same,selectivity ratio,[2],> 16
Cc1ccc2c(c1)/C(=C1/Nc3ccccc3/C1=N\O)C(=O)N2,CC50,[1],> 500 µM
same,IC50,Toxoplasma gondii,> 500 µM
O=C1c2ccc(Cl)cc2-n2c1nc1ccccc1c2=O,CC50,[1],> 500 µM
same,IC50,Toxoplasma gondii,6.3 µM
same,selectivity ratio,[2],> 80
O=C1c2cc(Br)c(Cl)cc2-n2c1nc1ccccc1c2=O,CC50,[1],100 µM
same,IC50,Toxoplasma gondii,1.7 µM
same,selectivity ratio,[2],59
O=C1Nc2ccc(F)cc2/C1=C1/Nc2ccccc2/C1=N\O,CC50,[1],61 µM
same,IC50,Toxoplasma gondii,0.52 µM
same,selectivity ratio,[2],120
O=C1Nc2ccc(Cl)cc2/C1=C1/Nc2ccccc2/C1=N\O,CC50,[1],51 µM
same,IC50,Toxoplasma gondii,2.2 µM
same,selectivity ratio,[2],23
Cc1ccc2[nH]c(O)c(C3=Nc4ccccc4C3=O)c2c1,CC50,[1],> 500 µM
same,IC50,Toxoplasma gondii,> 500 µM
O=C1c2cc(I)ccc2-n2c1nc1ccccc1c2=O,CC50,[1],> 500 µM
same,IC50,Toxoplasma gondii,0.02 µM
